IC50 data for 13 compounds are collected here from patent US11548903B2, “Bicyclic thiazine and oxazine derivatives as beta-secretase inhibitors and methods of use” (AMGEN INC., priority 2016, dated 2023).

One test concerns the target Recombinant CatD (Homo sapiens (Human), UniProt P07339). Kind of test: In vitro enzymatic Cathepsin D (CatD) FRET assay. Format: biochemical. The note with it: read-out: Cat D Enzyme IC50. On the procedure: In Vitro Enzymatic Cathepsin D (CatD) FRET Assay Recombinant CatD was expressed in CHO cells. The assay buffer for CatD was 0.05 M citrate pH 3.5, 10% DMSO final, 5 mM CHAPS. […] The assays was effectively started by the addition of different FRET substrates (20 nM for CatD) and the combination was incubated for one hour. The FRET assay was terminated with by addition of tris buffer, which raises the pH to neutrality, and the fluorescence was determined. The FRET substrate was a peptide with commercially available fluorophore and quencher, on opposite sides of the CatD cleavage site. The CatD substrate peptide sequence was based on sequence #1 of Table 1 from Gulnik et al., FEBS Lett. 413(2):379-384 (1997). Proteolytic cleavage of the FRET substrate released quenching of fluorescence (CatD excitation 500 nm and emission 580 nm). The in vitro CatD FRET assay data for each of the Examples is provided in Table 2, conducted by the first procedure described above. […] Thus, with this surprising selectivity profile, the compounds provided herein are believed to minimize, reduce or completely eliminate any risk of retinal atrophy and abnormal development of the eye and of the retinal pigmented epithelium as it relates to the normal function and activity of CatD.

The target of a further test is human recombinant BACE2 (Homo sapiens (Human), UniProt Q9Y5Z0). The experiment in a line: In vitro enzymatic BACE2 FRET assay. Format: biochemical. The following applies: read-out: BACE2 Enzyme IC50. On the procedure: (§1) In Vitro Enzymatic BACE1 and BACE2 FRET (Fluorescence Resonance Energy Transfer) Assays […] These recombinant proteins were further purified using Ni-NTA affinity chromatography (Qiagen). […] The assay was effectively started by the addition of FRET substrate (50 nM) and the combination was incubated for one hour. The FRET assay was terminated by the addition of tris buffer, which raised the pH to neutrality, and the fluorescence was determined. The FRET substrate was a peptide with commercially available fluorophore and quencher, on opposite sides of the BACE cleavage site. The specific FRET substrate used in this assay was made by Amgen in-house. Commercially available FRET substrates, for example, the FRET substrate offered with the BACE1 FRET Assay Kit sold by ThermoFisher Scientific (Catalog Number P2985), may be used in this assay with the appropriate modifications, which are within the purview of the ability of a person with ordinary skill in the art. Proteolytic cleavage of the FRET substrate released quenching of fluorescence (excitation 488 nm and emission 590 nm).
human recombinant BACE2, sequence (Q9Y5Z0 63-518): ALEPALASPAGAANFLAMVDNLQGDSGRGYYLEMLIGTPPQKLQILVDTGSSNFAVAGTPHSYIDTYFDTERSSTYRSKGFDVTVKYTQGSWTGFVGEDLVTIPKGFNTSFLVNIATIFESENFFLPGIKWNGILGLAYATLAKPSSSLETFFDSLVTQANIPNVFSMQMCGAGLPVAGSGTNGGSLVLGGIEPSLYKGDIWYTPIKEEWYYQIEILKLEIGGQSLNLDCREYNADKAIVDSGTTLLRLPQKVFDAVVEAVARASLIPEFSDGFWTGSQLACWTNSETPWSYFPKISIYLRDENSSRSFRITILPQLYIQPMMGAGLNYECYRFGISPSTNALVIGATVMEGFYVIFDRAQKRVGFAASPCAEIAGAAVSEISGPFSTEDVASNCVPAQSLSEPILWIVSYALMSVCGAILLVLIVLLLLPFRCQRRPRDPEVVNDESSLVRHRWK

For test [1], the system named is BACE1 (Aβ40 from cells stably expressing Amyloid Precursor Protein). Kind of test: In vitro BACE1 cell-based assay (Aβ40 in conditioned medium, HTRF). As to the method:
In Vitro BACE1 Cell-Based Assay The cell-based assay measures inhibition or reduction of Aβ40 in conditioned medium of test compound treated cells expressing amyloid precursor protein. Cells stably expressing Amyloid Precursor Protein (APP) were plated at a density of 45K cells/well in 384 well plates (Corning/BioCoat 354663). The test compounds were then added to cells in 22-point dose response concentrations with the starting concentration being 62.5 μM. The compounds were diluted from stock solutions in DMSO and the final DMSO concentration of the test compounds on cells was 0.625%. The cells were cultivated overnight at 37° C. and 5% CO2 in DMEM supplemented with 10% FBS. After 24 h of incubation with the test compounds, the conditioned media was collected and the Aβ40 levels were determined using HTRF (Homogeneous Time Resolved Fluorescence). […] The HTRF to detect Aβ40 was performed in 384 well plates (Costar 3658). The antibody pair that were used to detect Aβ 40 from cell supernatants were ConfAb40 antibody (Amgen in-house) and biotinylated 6E10 (BIOLEGEND). As an alternative to ConfAb40, a commercially available antibody, Anti-beta Amyloid 1-40 antibody [BDI350] from Abcam, Cambridge, Mass. 02139-1517 (Product code: ab20068), may be used in this assay. […] The conditioned media was incubated with above antibodies and Streptavidin Allophycocyanin Conjugate for 30-60 minutes at 23° C. The final readout was performed on Envision from PerkinElmer.

Another test deals with human recombinant BACE1 (Homo sapiens (Human), UniProt P56817). The experiment in a line: In vitro enzymatic BACE1 FRET assay. Format: biochemical. The following applies: read-out: BACE1 Enzyme IC50. On the procedure: as §1
human recombinant BACE1, sequence (P56817 46-501): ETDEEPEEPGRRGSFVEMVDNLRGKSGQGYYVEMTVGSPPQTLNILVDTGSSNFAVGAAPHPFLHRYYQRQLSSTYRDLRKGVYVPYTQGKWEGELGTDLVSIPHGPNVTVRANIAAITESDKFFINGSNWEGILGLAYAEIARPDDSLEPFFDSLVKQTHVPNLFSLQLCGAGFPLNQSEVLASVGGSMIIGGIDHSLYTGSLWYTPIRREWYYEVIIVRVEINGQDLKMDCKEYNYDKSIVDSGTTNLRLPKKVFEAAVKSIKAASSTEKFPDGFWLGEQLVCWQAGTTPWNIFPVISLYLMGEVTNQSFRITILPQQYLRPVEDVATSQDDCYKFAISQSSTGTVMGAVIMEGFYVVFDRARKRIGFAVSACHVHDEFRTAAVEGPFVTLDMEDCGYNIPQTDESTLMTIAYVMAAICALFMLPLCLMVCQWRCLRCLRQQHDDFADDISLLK
The mark [2] stands for this setting: Aβ40, 24 h incubation, read-out: BACE1 Cell IC50.
Setting [3] is: 24 h, read-out: BACE1 Cell IC50 (μM).

Molecules are shown by their SMILES. Like-named read-outs stand apart in the source and are kept apart here.

Recombinant CatD, sequence (P07339 65-412): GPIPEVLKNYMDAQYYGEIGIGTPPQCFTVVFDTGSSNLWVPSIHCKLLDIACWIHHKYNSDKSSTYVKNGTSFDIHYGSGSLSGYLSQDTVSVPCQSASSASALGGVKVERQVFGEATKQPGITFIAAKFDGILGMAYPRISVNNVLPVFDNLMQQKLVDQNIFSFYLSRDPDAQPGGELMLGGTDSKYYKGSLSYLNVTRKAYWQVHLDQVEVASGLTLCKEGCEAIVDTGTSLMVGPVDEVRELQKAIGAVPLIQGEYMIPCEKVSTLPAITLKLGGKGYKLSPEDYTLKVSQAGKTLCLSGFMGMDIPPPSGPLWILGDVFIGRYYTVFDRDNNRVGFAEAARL

With `N#Cc1cnc(/C(F)=C/c2ccc(F)c([C@]34CO[C@H](C(F)(F)F)[C@H]3CSC(N)=N4)c2)c(Cl)c1` [Example 140, 6-((Z)-2-(3-((4aS,5S,7aS)-2-amino-5-(trifluoromethyl)-4a,5,7,7a-tetrahydro-4H-furo[3,4-d][1,3]thiazin-7a-yl)-4-fluorophenyl)-1-fluorovinyl)-5-chloronicotinonitrile], the IC50 stood at 333 µM at Recombinant CatD, 0.22 µM at human recombinant BACE2, 0.0482 µM in test [1] (setting [2]) and 0.0087 µM on human recombinant BACE1.

For `N#Cc1ccc(/C(F)=C/c2ccc(F)c([C@@]34CO[C@@H](C(F)(F)F)[C@@H]3COC(N)=N4)c2)nc1` (racemic) [Example 141, 6-((Z)-2-(3-((4aR,5S,7aS)-2-amino-5-(trifluoromethyl)-4a,5,7,7a-tetrahydro-4H-furo[3,4-d][1,3]oxazin-7a-yl)-4-fluorophenyl)-1-fluorovinyl)nicotinonitrile and 6-((Z)-2-(3-((4aS,5R,7aR)-2-amino-5-(trifluoromethyl)-4a,5,7,7a-tetrahydro-4H-furo[3,4-d][1,3]oxazin-7a-yl)-4-fluorophenyl)-1-fluorovinyl)nicotinonitrile], the IC50 came to 237 µM at Recombinant CatD, 9.72 µM at human recombinant BACE2, 0.161 µM in test [1] (setting [2]) and 0.0862 µM at human recombinant BACE1.

Turning to `NC1=N[C@@]2(c3cc(/C=C(\F)c4ccc(OC(F)(F)F)cn4)ccc3F)CO[C@H](C(F)(F)F)[C@H]2CS1` [Example 129, (4aS,5S,7aS)-7a-(2-fluoro-5-((Z)-2-fluoro-2-(5-(trifluoromethoxy)pyridin-2-yl)vinyl)phenyl)-5-(trifluoromethyl)-4a,5,7,7a-tetrahydro-4H-furo[3,4-d][1,3]thiazin-2-amine], the IC50 on Recombinant CatD was more than 44.4 µM; on human recombinant BACE2, 2.21 µM; in test [1] (setting [2]), 0.0151 µM; on human recombinant BACE1, 0.107 µM.

In the case of `NC1=N[C@]2(c3cc(/C=C(\F)c4ccc(Cl)cn4)ccc3F)COC[C@@H]2CS1` [Example 104, (4aR,7aR)-7a-(5-((Z)-2-(5-chloropyridin-2-yl)-2-fluorovinyl)-2-fluorophenyl)-4a,5,7,7a-tetrahydro-4H-furo[3,4-d][1,3]thiazin-2-amine], the IC50 was determined as 654 µM on Recombinant CatD, 7.48 µM at human recombinant BACE2, 2.26 µM in test [1] (setting [2]) and 0.804 µM at human recombinant BACE1.

`COc1cnc(/C(F)=C/c2ccc(F)c([C@]34CN(c5ncc(F)cn5)C[C@H]3CSC(N)=N4)c2)cn1` [Example 108, (4aR,7aS)-7a-(2-fluoro-5-((Z)-2-fluoro-2-(5-methoxypyrazin-2-yl)vinyl)phenyl)-6-(5-fluoropyrimidin-2-yl)-4,4a,5,6,7,7a-hexahydropyrrolo[3,4-d][1,3]thiazin-2-amine]: the IC50 was found to be 14.8 µM on Recombinant CatD, 0.034 µM at human recombinant BACE2, 0.016 µM in test [1] (setting [2]) and 0.00271 µM at human recombinant BACE1.

Consider `NC1=N[C@@]2(c3cc(/C=C(\F)c4cnc(OCC(F)F)cn4)ccc3F)CN(c3ncc(F)cn3)C[C@H]2CS1` [Example 113, (4aR,7aS)-7a-(5-((Z)-2-(5-(2,2-difluoroethoxy)pyrazin-2-yl)-2-fluorovinyl)-2-fluorophenyl)-6-(5-fluoropyrimidin-2-yl)-4,4a,5,6,7,7a-hexahydropyrrolo[3,4-d][1,3]thiazin-2-amine], for which the IC50 came out at 26.6 µM at Recombinant CatD, 0.0381 µM on human recombinant BACE2, 0.00935 µM in test [1] (setting [2]) and 0.0226 µM at human recombinant BACE1.

Consider `NC1=N[C@@]2(c3cc(/C=C(\F)c4ccc(Cl)cn4)ccc3F)COC[C@H]2CS1` [Example 105, (4aS,7aS)-7a-(5-((Z)-2-(5-chloropyridin-2-yl)-2-fluorovinyl)-2-fluorophenyl)-4a,5,7,7a-tetrahydro-4H-furo[3,4-d][1,3]thiazin-2-amine], for which the IC50 at Recombinant CatD is 181 µM; at human recombinant BACE2 it was 0.0569 µM; in test [1] (setting [2]), 0.129 µM; at human recombinant BACE1 it was 0.0644 µM.

Turning to `C#CCOc1cnc(/C(F)=C/c2ccc(F)c([C@]34CN(c5ncccn5)C[C@H]3CSC(N)=N4)c2)cn1` [Example 120, (4aR,7aS)-7a-(2-fluoro-5-((Z)-2-fluoro-2-(5-(prop-2-yn-1-yloxy)pyrazin-2-yl)vinyl)phenyl)-6-(pyrimidin-2-yl)-4,4a,5,6,7,7a-hexahydropyrrolo[3,4-d][1,3]thiazin-2-amine], the IC50 is 6.3 µM at Recombinant CatD, 0.034 µM at human recombinant BACE2, 0.00076 µM in test [1] (setting [2]) and 0.000187 µM on human recombinant BACE1.

Take `N#Cc1ccc(/C(F)=C/c2ccc(F)c([C@@]34CO[C@@H](C(F)(F)F)[C@@H]3CSC(N)=N4)c2)nc1` [Example 125, 6-((Z)-2-(3-((4aR,5R,7aR)-2-amino-5-(trifluoromethyl)-4a,5,7,7a-tetrahydro-4H-furo[3,4-d][1,3]thiazin-7a-yl)-4-fluorophenyl)-1-fluorovinyl)nicotinonitrile]: the IC50 at Recombinant CatD stood at 30.6 µM; on human recombinant BACE2, 18 µM; in test [1] (setting [2]), 1.39 µM; at human recombinant BACE1 it was 2.54 µM.

For the compound `C#CCOc1cnc(/C(F)=C/c2ccc(F)c([C@]34CN(C(=O)OC)C[C@H]3CSC(N)=N4)c2)cn1` [Example 121, (4aR,7aS)-methyl 2-amino-7a-(2-fluoro-5-((Z)-2-fluoro-2-(5-(prop-2-yn-1-yloxy)pyrazin-2-yl)vinyl)phenyl)-4a,5,7,7a-tetrahydropyrrolo[3,4-d][1,3]thiazine-6(4H)-carboxylate], the IC50 worked out at 47.9 µM on Recombinant CatD, 0.258 µM on human recombinant BACE2, 0.00679 µM in test [1] (setting [3]) and 0.00159 µM on human recombinant BACE1.

Consider `N#Cc1cnc(/C(F)=C/c2ccc(F)c([C@]34CN(c5ncc(F)cn5)C[C@H]3CSC(N)=N4)c2)cn1` [Example 111, 5-((Z)-2-(3-((4aR,7aS)-2-amino-6-(5-fluoropyrimidin-2-yl)-4,4a,5,6,7,7a-hexahydropyrrolo[3,4-d][1,3]thiazin-7a-yl)-4-fluorophenyl)-1-fluorovinyl)pyrazine-2-carbonitrile], for which the half-inhibitory concentration (IC50) at Recombinant CatD stood at 19.6 µM; at human recombinant BACE2, 0.00518 µM; in test [1] (setting [2]), 0.000807 µM; on human recombinant BACE1 it was 0.00032 µM.

In the case of `C#CCOc1cnc(/C(F)=C/c2ccc(F)c([C@]34CN(C(=O)OC(C)(C)C)C[C@H]3CSC(N)=N4)c2)cn1` [Example 116, (4aR,7aS)-tert-butyl 2-amino-7a-(2-fluoro-5-((Z)-2-fluoro-2-(5-(prop-2-yn-1-yloxy)pyrazin-2-yl)vinyl)phenyl)-4a,5,7,7a-tetrahydropyrrolo[3,4-d][1,3]thiazine-6(4H)-carboxylate], the IC50 stood at 28.6 µM at Recombinant CatD, 0.052 µM on human recombinant BACE2, 0.00188 µM in test [1] (setting [3]) and 0.00253 µM on human recombinant BACE1.

In the case of `NC1=N[C@]2(c3cc(/C=C(\F)c4ccc(Cl)cn4)ccc3F)CN(c3ncc(F)cn3)C[C@@H]2CS1` [Example 100, (4aS,7aR)-7a-(5-((Z)-2-(5-chloropyridin-2-yl)-2-fluorovinyl)-2-fluorophenyl)-6-(5-fluoropyrimidin-2-yl)-4,4a,5,6,7,7a-hexahydropyrrolo[3,4-d][1,3]thiazin-2-amine], the IC50 stood at 544 µM on Recombinant CatD, 0.495 µM on human recombinant BACE2, 1.25 µM in test [1] (setting [3]) and 0.847 µM at human recombinant BACE1.
